Data as given in paper PMC6857051, “Proliferative regulation of alveolar epithelial type 2 progenitor cells by human Scnn1d gene” (Theranostics, 2019).

What was measured:
δ802αβγ-ENaC = target: T1, δ802αβγ-ENaC (Homo sapiens, UniProt P51168+P51170); test: Two-electrode voltage clamp of δ802αβγ-ENaC expressed in Xenopus oocytes; type: cell-based
T1 construct: We characterized full-length human δ802-ENaC expressed in both Xenopus oocytes and humanized transgenic mice; expressed in transfected cells; host or cells: Xenopus laevis oocytes injected with cRNA (pGEM HE vector)
T1 sequence (P51168 1-640): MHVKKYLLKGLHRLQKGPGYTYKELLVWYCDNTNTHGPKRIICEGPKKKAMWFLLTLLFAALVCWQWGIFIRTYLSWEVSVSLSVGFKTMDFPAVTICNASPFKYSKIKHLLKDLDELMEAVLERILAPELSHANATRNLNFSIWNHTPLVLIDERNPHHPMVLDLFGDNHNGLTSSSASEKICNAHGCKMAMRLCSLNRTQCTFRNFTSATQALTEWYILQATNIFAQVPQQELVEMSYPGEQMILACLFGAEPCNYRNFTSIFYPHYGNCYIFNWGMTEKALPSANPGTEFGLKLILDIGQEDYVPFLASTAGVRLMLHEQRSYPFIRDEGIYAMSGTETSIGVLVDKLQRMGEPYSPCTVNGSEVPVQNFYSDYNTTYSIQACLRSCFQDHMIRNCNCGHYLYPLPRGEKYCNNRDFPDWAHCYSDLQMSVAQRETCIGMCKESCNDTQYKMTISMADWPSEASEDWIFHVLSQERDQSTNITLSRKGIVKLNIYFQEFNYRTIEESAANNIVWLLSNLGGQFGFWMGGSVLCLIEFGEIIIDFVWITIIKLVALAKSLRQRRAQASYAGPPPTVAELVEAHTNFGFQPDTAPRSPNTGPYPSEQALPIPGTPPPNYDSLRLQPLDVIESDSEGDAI
T1 sequence (P51170 1-649): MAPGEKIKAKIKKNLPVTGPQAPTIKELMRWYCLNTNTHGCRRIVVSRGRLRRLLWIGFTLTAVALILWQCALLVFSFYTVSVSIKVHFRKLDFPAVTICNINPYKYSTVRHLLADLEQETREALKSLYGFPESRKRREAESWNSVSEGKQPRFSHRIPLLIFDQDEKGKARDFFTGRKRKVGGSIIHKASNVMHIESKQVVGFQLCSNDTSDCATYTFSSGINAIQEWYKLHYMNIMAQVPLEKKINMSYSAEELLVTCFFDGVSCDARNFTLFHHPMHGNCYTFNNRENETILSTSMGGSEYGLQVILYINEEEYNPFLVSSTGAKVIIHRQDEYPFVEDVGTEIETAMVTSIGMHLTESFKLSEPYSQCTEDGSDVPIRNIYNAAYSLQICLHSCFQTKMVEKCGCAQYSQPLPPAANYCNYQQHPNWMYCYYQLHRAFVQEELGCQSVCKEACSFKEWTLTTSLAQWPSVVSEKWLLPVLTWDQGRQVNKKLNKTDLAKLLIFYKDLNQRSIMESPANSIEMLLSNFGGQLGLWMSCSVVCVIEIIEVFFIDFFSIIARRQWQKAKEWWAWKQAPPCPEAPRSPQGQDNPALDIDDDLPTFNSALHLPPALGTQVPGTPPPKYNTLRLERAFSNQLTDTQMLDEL
Method: Cloning, in vitro transcription, and heterologous expression of δ802 ENaC and two-electrode voltage clamping assay. δ802 and other ENaC subunits were generated in human ENaC cDNAs cloned into a pGEM HE vector [4], [76]. cRNAs of human α, β, and γ ENaC were prepared as described previously. The stoichiometry of native ENaC complexes is unclear to date. Based on the studies in the last decade, several models have been proposed for αβγ ENaC channels: 1α1β1γ, 2α1β1γ, 3α3β3γ. Based on the EM structure of human αβγ ENaC [35], the currently acceptable model of human αβγ ENaC complexes is heterotrimeric (1α1β1γ). Thus we microinjected δ802:β:γ in a 1:1:1 subunit ratio. Oocytes were surgically removed from appropriately anesthetized adult female Xenopus laevis (Xenopus Express). Briefly, the ovarian tissue was removed from the frog under anesthesia by tricaine-S (Western Chemicals) through a small incision in the lower abdomen. Ovarian lobes were removed and digested in OR-2 calcium-free medium (in mM: 82.5 NaCl, 2.5 KCl, 1.0 MgCl2, 1.0 Na2HPO4, and 10.0 HEPES, pH 7.5) with the addition of 2 mg/ml collagenase (Roche, Indianapolis). Defolliculated oocytes were injected with ENaC cRNAs into the cytosol (25 ng per oocyte in 50 nl of RNase-free water) and incubated in regular OR-2 medium at 18°C. The two-electrode voltage-clamp technique was used to record whole-cell currents 48 h post injection. Oocytes were impaled with two electrodes filled with 3M KCl, having resistance of 0.5 - 2 MΩ. A TEV-200A voltage-clamp amplifier (Dagan) was used to clamp oocytes with concomitant recording of currents. Two reference electrodes were connected to the bath. The continuously perfused bathing solution was ND-96 medium (in mM: 96.0 NaCl, 1.0 MgCl2, 1.8 CaCl2, 2.5 KCl, and 5.0 HEPES, pH 7.5). Whole-cell currents were recorded as previously reported. Experiments were controlled by pCLAMP 10.7 software (Molecular Devices), and currents at -40 mV, -100 mV, and +80 mV were continuously monitored with data recorded at intervals of 10 sec. Data were sampled at the rate of 200 Hz and filtered at 50 Hz.

[1] = target: ENaC activity in δ802-ENaC expressing mouse tracheal epithelial (MTE) monolayers; test: Ussing chamber short-circuit current, δ-ENaC MTE monolayers (induced δ802Tg/Cre); type: cell-based

For `N=C(N)NC(=O)c1nc(Cl)c(N)nc1N` [amiloride], the “inhibition of the α-13 peptide-resistant remaining fraction of current amplitude” value (δ802αβγ-ENaC; amiloride 10 μM after α-13 300 μM, δαβγ-ENaC, -100 mV) was “approximately 80%” and the Ki ([1]; Isc, Ussing chamber, amiloride 1 - 1,000 μM, n=5, read-out: ki value (logistic function), δ-ENaC MTE monolayers (converted)) was 3.04 ± 0.26 µM.

Ac-LRGTLPHPLQRLR-NH2 [α-13 peptide] was tested, and the “fraction of total δαβγ-ENaC activity suppressed” value (δ802αβγ-ENaC; α-13 300 μM, -100 mV, n=5, Figure 2B) was “Approximately half” and the “α-13 peptide-inhibitable fraction of Isc, δ802-ENaC cells” value ([1]; α-13 300 μM apical, MTE monolayers, n=6) was 52%.

B1: plasmin: serine protease of the plasmin(ogen) signal pathway for fibrinolysis (protein, UniProt P00747 20-580; P00747 581-810, looked up)
Plasmin heavy chain A: EPLDDYVNTQGASLFSVTKKQLGAGSIEECAAKCEEDEEFTCRAFQYHSKEQQCVIMAENRKSSIIIRMRDVVLFEKKVYLSECKTGNGKNYRGTMSKTKNGITCQKWSSTSPHRPRFSPATHPSEGLEENYCRNPDNDPQGPWCYTTDPEKRYDYCDILECEEECMHCSGENYDGKISKTMSGLECQAWDSQSPHAHGYIPSKFPNKNLKKNYCRNPDRELRPWCFTTDPNKRWELCDIPRCTTPPPSSGPTYQCLKGTGENYRGNVAVTVSGHTCQHWSAQTPHTHNRTPENFPCKNLDENYCRNPDGKRAPWCHTTNSQVRWEYCKIPSCDSSPVSTEQLAPTAPPELTPVVQDCYHGDGQSYRGTSSTTTTGKKCQSWSSMTPHRHQKTPENYPNAGLTMNYCRNPDADKGPWCFTTDPSVRWEYCNLKKCSGTEASVVAPPPVVLLPDVETPSEEDCMFGNGKGYRGKRATTVTGTPCQDWAAQEPHRHSIFTPETNPRAGLEKNYCRNPDGDVGGPWCYTTNPRKLYDYCDVPQCAAPSFDCGKPQVEPKKCPGR
Plasmin light chain B: VVGGCVAHPHSWPWQVSLRTRFGMHFCGGTLISPEWVLTAAHCLEKSPRPSSYKVILGAHQEVNLEPHVQEIEVSRLFLEPTRKDIALLKLSSPAVITDKVIPACLPSPNYVVADRTECFITGWGETQGTFGAGLLKEAQLPVIENKVCNRYEFLNGRVQSTELCAGHLAGGTDSCQGDSGGPLVCFEKDKYILQGVTSWGLGCARPNKPGVYVRVSRFVTWIEGVMRNN
modifications: Plasmin
notes: serine protease of the plasmin(ogen) signal pathway for fibrinolysis
With B1 the “effect of pre-treatment on δ802αβγ-ENaC activity” value (δ802αβγ-ENaC; oocytes pre-treated, currents at -100 mV, n=5, Figure 3D) was “potentiated”.
